Assays:
velvetleaf = assay: Test B pre/postemergence velvetleaf; assay type: in vivo, Abutilon theophrasti
How it was run: (§1)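 Herbicidal effect was estimated by eye on a ten-point control scale after plants spent twelve to sixteen days in a greenhouse following soil or foliar treatment. Foliar sprays targeted plants at one to four leaves; all doses were formulated in a non-phytotoxic solvent with surfactant.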

surinam grass = assay: Test B pre/postemergence surinam grass; assay type: in vivo, Brachiaria decumbens
How it was run: as §1

soybean = assay: Test B pre/postemergence soybean; assay type: in vivo, Glycine max
How it was run: as §1

rape = assay: Test B pre/postemergence rape; assay type: in vivo, Brassica napus
How it was run: as §1

blackgrass = assay: Test B pre/postemergence blackgrass; assay type: in vivo, Alopecurus myosuroides
How it was run: as §1

bedstraw = assay: Test B pre/postemergence bedstraw; assay type: in vivo, Galium aparine
How it was run: as §1

wild oat = assay: Test B pre/postemergence wild oat; assay type: in vivo, Avena fatua
How it was run: as §1

sugar beet = assay: Test B pre/postemergence sugar beet; assay type: in vivo, Beta vulgaris
How it was run: as §1

giant foxtail = assay: Test B pre/postemergence giant foxtail; assay type: in vivo, Setaria faberii
How it was run: as §1

corn = assay: Test B pre/postemergence corn; assay type: in vivo, Zea mays
How it was run: as §1

cocklebur = assay: Test B pre/postemergence cocklebur; assay type: in vivo, Xanthium strumarium
How it was run: as §1

morningglory = assay: Test B pre/postemergence morningglory; assay type: in vivo, Ipomoea hederacea
How it was run: as §1

purple nutsedge = assay: Test B pre/postemergence purple nutsedge; assay type: in vivo, Cyperus rotundus
How it was run: as §1

crabgrass = assay: Test B pre/postemergence crabgrass; assay type: in vivo, Digitaria sanguinalis
How it was run: as §1

wheat = assay: Test B pre/postemergence wheat; assay type: in vivo, Triticum aestivum
How it was run: as §1

pigweed = assay: Test B pre/postemergence pigweed; assay type: in vivo, Amaranthus retroflexus
How it was run: as §1

[1] = Postemergence, Rate 62 g/ha, scale of 0 to 10, 0 is no effect, 10 is complete control
[2] = Postemergence, Rate 125 g/ha, scale 0 to 10, 0 is no effect, 10 is complete control
[3] = Postemergence, Rate 500 g/ha, scale 0 to 10, 0 is no effect, 10 is complete control
[4] = Preemergence, Rate 62 g/ha, scale of 0 to 10 where 0 is no effect and 10 is complete control
[5] = Preemergence, Rate 125 g/ha, scale 0 to 10, 0 is no effect, 10 is complete control
[6] = Preemergence, Rate 500 g/ha, scale of 0 to 10 where 0 is no effect and 10 is complete control
[7] = Preemergence, Rate 250 g/ha, scale 0 to 10, 0 is no effect, 10 is complete control
[8] = Preemergence, Rate 500 g/ha, scale 0 to 10, 0 is no effect, 10 is complete control
[9] = Postemergence, Rate 250 g/ha, scale 0 to 10

`CC(C)N(C(=O)n1oc(=O)n(CC2OCCO2)c1=O)c1ccc(F)cc1F` [Compound 501] was tested, and the “Velvetleaf plant response rating” value (velvetleaf; [1]) was 0, the “Velvetleaf plant response rating” value (velvetleaf; [2]) was 0 and the “Plant response rating, Velvetleaf” value (velvetleaf; [3]) was 3. For the same compound, the “Plant response rating, Velvetleaf” value (velvetleaf; [4]) was 0, the “Velvetleaf plant response rating” value (velvetleaf; [5]) was 2 and the “Velvetleaf plant response rating” value (velvetleaf; [6]) was 5. The “B. signalgrass plant response rating” value (surinam grass; [1]) was 2, the “B. signalgrass plant response rating” value (surinam grass; [2]) was 6 and the “B. signalgrass plant response rating” value (surinam grass; Postemergence, Rate 250 g/ha, scale 0 to 10, 0 no effect, 10 complete control) was 7. The “Plant response rating, B. signalgrass” value (surinam grass; [3]) was 7, the “Plant response rating, B. signalgrass” value (surinam grass; [4]) was 8 and the “B. signalgrass plant response rating” value (surinam grass; [5]) was 9. The “B. signalgrass plant response rating” value (surinam grass; [7]) was 9, the “B. signalgrass plant response rating” value (surinam grass; [8]) was 10 and the “Soybean plant response rating” value (soybean; [1]) was 4. The “Soybean plant response rating” value (soybean; [2]) was 3, the “Plant response rating, Soybean” value (soybean; [3]) was 5 and the “Plant response rating, Soybean” value (soybean; [4]) was 0. For the same compound, the “Soybean plant response rating” value (soybean; [5]) was 0, the “Soybean plant response rating” value (soybean; [6]) was 8 and the “Rape plant response rating” value (rape; [1]) was 2. For the same compound, the “Rape plant response rating” value (rape; [2]) was 2, the “Plant response rating, Rape” value (rape; [3]) was 7 and the “Plant response rating, Rape” value (rape; [4]) was 0. The “Rape plant response rating” value (rape; [5]) was 0, the “Rape plant response rating” value (rape; [6]) was 10 and the “Blackgrass plant response rating” value (blackgrass; [1]) was 3. For the same compound, the “Blackgrass plant response rating” value (blackgrass; [2]) was 6, the “Blackgrass plant response rating” value (blackgrass; [9]) was 6 and the “Plant response rating, Blackgrass” value (blackgrass; [3]) was 7. The “Plant response rating, Blackgrass” value (blackgrass; [4]) was 5, the “Blackgrass plant response rating” value (blackgrass; [5]) was 5 and the “Blackgrass plant response rating” value (blackgrass; [7]) was 9. For the same compound, the “Blackgrass plant response rating” value (blackgrass; [6]) was 9, the “Plant response rating, Bedstraw” value (bedstraw; [3]) was 9 and the “Plant response rating, Bedstraw” value (bedstraw; [4]) was 2. The “Bedstraw plant response rating” value (bedstraw; [5]) was 9, the “Bedstraw plant response rating” value (bedstraw; [7]) was 10 and the “Bedstraw plant response rating” value (bedstraw; [8]) was 9. The “Wild oats plant response rating” value (wild oat; [1]) was 0, the “Wild oats plant response rating” value (wild oat; [2]) was 0 and the “Plant response rating, Wild oats” value (wild oat; [3]) was 3. For the same compound, the “Plant response rating, Wild oats” value (wild oat; [4]) was 0, the “Wild oats plant response rating” value (wild oat; [5]) was 7 and the “Wild oats plant response rating” value (wild oat; [6]) was 10. For the same compound, the “Sugarbeets plant response rating” value (sugar beet; [1]) was 5, the “Sugarbeets plant response rating” value (sugar beet; [2]) was 5 and the “Plant response rating, Sugarbeets” value (sugar beet; [3]) was 8. For the same compound, the “Plant response rating, Sugarbeets” value (sugar beet; [4]) was 0, the “Sugarbeets plant response rating” value (sugar beet; [5]) was 3 and the “Sugarbeets plant response rating” value (sugar beet; [6]) was 8. For the same compound, the “Giant foxtail plant response rating” value (giant foxtail; [1]) was 8, the “Giant foxtail plant response rating” value (giant foxtail; [2]) was 8 and the “Plant response rating, Giant foxtail” value (giant foxtail; [3]) was 8. The “Plant response rating, Giant foxtail” value (giant foxtail; [4]) was 9, the “Giant foxtail plant response rating” value (giant foxtail; [5]) was 10 and the “Giant foxtail plant response rating” value (giant foxtail; [6]) was 10. The “Corn plant response rating” value (corn; [1]) was 0, the “Corn plant response rating” value (corn; [2]) was 0 and the “Corn plant response rating” value (corn; [9]) was 4. The “Plant response rating, Corn” value (corn; [3]) was 6, the “Corn plant response rating” value (corn; [5]) was 2 and the “Cocklebur plant response rating” value (cocklebur; [1]) was 0. For the same compound, the “Cocklebur plant response rating” value (cocklebur; [2]) was 0, the “Cocklebur plant response rating” value (cocklebur; [9]) was 2 and the “Plant response rating, Cocklebur” value (cocklebur; [3]) was 5. For the same compound, the “Plant response rating, Cocklebur” value (cocklebur; [4]) was 0, the “Cocklebur plant response rating” value (cocklebur; [5]) was 0 and the “Cocklebur plant response rating” value (cocklebur; [7]) was 0. For the same compound, the “Cocklebur plant response rating” value (cocklebur; [6]) was 3, the “Morningglory plant response rating” value (morningglory; [1]) was 0 and the “Morningglory plant response rating” value (morningglory; [2]) was 3. For the same compound, the “Plant response rating, Morningglory” value (morningglory; [3]) was 4, the “Plant response rating, Morningglory” value (morningglory; [4]) was 0 and the “Morningglory plant response rating” value (morningglory; [5]) was 0. The “Morningglory plant response rating” value (morningglory; [6]) was 5, the “Nutsedge plant response rating” value (purple nutsedge; [2]) was 0 and the “Plant response rating, Nutsedge” value (purple nutsedge; [3]) was 2. For the same compound, the “Plant response rating, Nutsedge” value (purple nutsedge; [4]) was 0, the “Nutsedge plant response rating” value (purple nutsedge; [5]) was 3 and the “Nutsedge plant response rating” value (purple nutsedge; [6]) was 9. The “Crabgrass plant response rating” value (crabgrass; [1]) was 7, the “Crabgrass plant response rating” value (crabgrass; [2]) was 8 and the “Crabgrass plant response rating” value (crabgrass; [9]) was 9. The “Plant response rating, Crabgrass” value (crabgrass; [3]) was 8, the “Plant response rating, Crabgrass” value (crabgrass; [4]) was 8 and the “Crabgrass plant response rating” value (crabgrass; [5]) was 9. The “Crabgrass plant response rating” value (crabgrass; [6]) was 9, the “Wheat plant response rating” value (wheat; [1]) was 2 and the “Plant response rating, Wheat” value (wheat; [3]) was 3. The “Plant response rating, Wheat” value (wheat; [4]) was 4, the “Wheat plant response rating” value (wheat; [5]) was 4 and the “Wheat plant response rating” value (wheat; [6]) was 8. The “Redroot pigweed plant response rating” value (pigweed; [1]) was 0, the “Redroot pigweed plant response rating” value (pigweed; [2]) was 4 and the “Plant response rating, Redroot pigweed” value (pigweed; [3]) was 5. For the same compound, the “Plant response rating, Redroot pigweed” value (pigweed; [4]) was 9, the “Redroot pigweed plant response rating” value (pigweed; [5]) was 10 and the “Redroot pigweed plant response rating” value (pigweed; [6]) was 10.
